# Laboratory results taken from patent US9493446B2, “Orexin receptor antagonists which are [ortho bi-(hetero-)aryl]-[2-(meta bi-(hetero-)aryl)-pyrrolidin-1-yl]-methanone derivatives” (Actelion Pharmaceuticals Ltd, priority 2012, dated 2016).
# Where two headings read alike, the source gives them in different places.
# Tests used:
# human orexin-2 receptor = human orexin-2 receptor (Homo sapiens (Human), UniProt O43614); test: Intracellular calcium measurement (FLIPR), CHO cells expressing human orexin-2 receptor, 3 nM orexin-A; assay type: cell-based; conditions: read-out: IC50 OX2
# Summary of the method: (§1)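 Fluo-4 AM-loaded CHO cells; antagonist preincubation 120 min, then 3 nM orexin-A (final) in HBSS/0.1% BSA/20 mM HEPES. FLIPR read at 1 s intervals; peak height vs. agonist-plus-vehicle control → IC50.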
# orexin-1 = orexin-1 (Homo sapiens (Human), UniProt O43613); test: Intracellular calcium measurement (FLIPR), CHO cells expressing human orexin-1 receptor, 3 nM orexin-A; assay type: cell-based; conditions: read-out: IC50 OX1
# Summary of the method: as §1
# [1] = CHO cells expressing human orexin-2 receptor, FLIPR, 3 nM orexin-A, geometric mean if determined several times
# [2] = CHO cells expressing human orexin-1 receptor, FLIPR, 3 nM orexin-A, geometric mean if determined several times
# Chain of human orexin-2 receptor (O43614 whole entry): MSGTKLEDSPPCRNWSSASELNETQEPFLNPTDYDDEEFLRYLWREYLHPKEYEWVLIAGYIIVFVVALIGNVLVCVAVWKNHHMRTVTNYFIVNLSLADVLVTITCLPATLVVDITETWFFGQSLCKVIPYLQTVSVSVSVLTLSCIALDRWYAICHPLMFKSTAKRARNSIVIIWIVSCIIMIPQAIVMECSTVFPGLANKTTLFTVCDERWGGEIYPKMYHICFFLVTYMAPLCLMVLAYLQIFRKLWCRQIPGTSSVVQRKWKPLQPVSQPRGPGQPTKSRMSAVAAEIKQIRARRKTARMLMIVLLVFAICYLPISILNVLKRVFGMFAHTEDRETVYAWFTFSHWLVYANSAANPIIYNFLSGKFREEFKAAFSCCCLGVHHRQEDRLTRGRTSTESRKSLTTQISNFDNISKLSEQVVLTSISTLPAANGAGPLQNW
# Chain of orexin-1 (O43613 whole entry): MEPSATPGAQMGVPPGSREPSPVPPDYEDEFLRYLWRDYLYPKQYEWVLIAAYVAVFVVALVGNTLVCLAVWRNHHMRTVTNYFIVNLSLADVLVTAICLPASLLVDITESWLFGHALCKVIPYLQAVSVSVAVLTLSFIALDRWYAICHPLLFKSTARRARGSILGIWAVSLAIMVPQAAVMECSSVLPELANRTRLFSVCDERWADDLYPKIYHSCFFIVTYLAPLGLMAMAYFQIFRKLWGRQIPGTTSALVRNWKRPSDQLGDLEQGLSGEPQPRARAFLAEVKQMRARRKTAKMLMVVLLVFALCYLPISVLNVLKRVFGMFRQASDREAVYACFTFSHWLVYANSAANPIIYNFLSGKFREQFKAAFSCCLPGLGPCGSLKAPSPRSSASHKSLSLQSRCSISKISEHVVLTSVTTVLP
IC50 (human orexin-2 receptor; [1]) [nM],IC50 (orexin-1; [2]) [nM],SMILES,IC50 (orexin-1) [nM],IC50 (human orexin-2 receptor) [nM]
88,343,"Cc1ccc(-n2nccn2)c(C(=O)N2CCC[C@H]2c2ncc(-c3cccc(Cl)c3C)[nH]2)c1 [compound 525, {(S)-2-[5-(3-Chloro-2-methyl-phenyl)-1H-imidazol-2-yl]-pyrrolidin-1-yl}-(5-methyl-2-[1,2,3]triazol-2-yl-phenyl)-methanone]",,
15,35,"CCc1ccccc1-c1nc([C@@H]2CCCN2C(=O)c2cc(C)ccc2-n2nccn2)no1 [compound 389, {(S)-2-[5-(2-Ethyl-phenyl)-[1,2,4]oxadiazol-3-yl]-pyrrolidin-1-yl}-(5-methyl-2-[1,2,3]triazol-2-yl-phenyl)-methanone]",,
1,9,"CCOc1c(F)cccc1-c1nc([C@@H]2CCCN2C(=O)c2cc(OC)c(C)cc2-n2nccn2)no1 [compound 323, {(S)-2-[5-(2-Ethoxy-3-fluoro-phenyl)-[1,2,4]oxadiazol-3-yl]-pyrrolidin-1-yl}-(5-methoxy-4-methyl-2-[1,2,3]triazol-2-yl-phenyl)-methanone]",,
7,57,"COc1cccc(-c2nc([C@@H]3CCCN3C(=O)c3cc(C)c(C)cc3-n3nccn3)no2)c1C [compound 356, (4,5-Dimethyl-2-[1,2,3]triazol-2-yl-phenyl)-{(S)-2-[5-(3-methoxy-2-methyl-phenyl)-[1,2,4]oxadiazol-3-yl]-pyrrolidin-1-yl}-methanone]",,
35,331,"COc1ccc(C)cc1-c1nc([C@@H]2CCCN2C(=O)c2ccc(C)cc2-n2nccn2)no1 [compound 414, {(S)-2-[5-(2-Methoxy-5-methyl-phenyl)-[1,2,4]oxadiazol-3-yl]-pyrrolidin-1-yl}-(4-methyl-2-[1,2,3]triazol-2-yl-phenyl)-methanone]",,
99,331,"CCOc1ncccc1-c1noc([C@@H]2CCCN2C(=O)c2ccccc2-n2nccn2)n1 [compound 218, {(S)-2-[3-(2-Ethoxy-pyridin-3-yl)-[1,2,4]oxadiazol-5-yl]-pyrrolidin-1-yl}-(2-[1,2,3]triazol-2-yl-phenyl)-methanone]",,
4,16,"CCOc1c(F)cccc1-c1nc([C@@H]2CCCN2C(=O)c2ccc(C)cc2-n2nccn2)no1 [compound 328, {(S)-2-[5-(2-Ethoxy-3-fluoro-phenyl)-[1,2,4]oxadiazol-3-yl]-pyrrolidin-1-yl}-(4-methyl-2-[1,2,3]triazol-2-yl-phenyl)-methanone]",,
11,19,"CCc1ccccc1-c1noc([C@@H]2CCCN2C(=O)c2cc(C)ccc2-n2nccn2)n1 [compound 25, {(S)-2-[3-(2-Ethyl-phenyl)-[1,2,4]oxadiazol-5-yl]-pyrrolidin-1-yl}-(5-methyl-2-[1,2,3]triazol-2-yl-phenyl)-methanone]",,
17,644,"Cc1c(F)cccc1-c1nc([C@@H]2CCCN2C(=O)c2ccccc2-n2nccn2)no1 [compound 333, {(S)-2-[5-(3-Fluoro-2-methyl-phenyl)-[1,2,4]oxadiazol-3-yl]-pyrrolidin-1-yl}-(2-[1,2,3]triazol-2-yl-phenyl)-methanone]",,
581,211,"Cc1ccc(-n2nccn2)c(C(=O)N2CCC[C@@]2(C)c2nc(-c3ccccc3)no2)c1 [Example 540, [(S)-2-Methyl-2-(3-phenyl-[1,2,4]oxadiazol-5-yl)-pyrrolidin-1-yl]-(5-methyl-2-[1,2,3]triazol-2-yl-phenyl)-methanone]",,
5,212,"COc1cc(C(=O)N2CCC[C@H]2c2noc(-c3cccc(F)c3OC)n2)c(-n2nccn2)cc1F [compound 373, {(S)-2-[5-(3-Fluoro-2-methoxy-phenyl)-[1,2,4]oxadiazol-3-yl]-pyrrolidin-1-yl}-(4-fluoro-5-methoxy-2-[1,2,3]triazol-2-yl-phenyl)-methanone]",,
5,47,"COc1cc(C(=O)N2CCC[C@H]2c2nc(-c3ccccc3OC(F)F)no2)c(-n2nccn2)cc1C [compound 189, {(S)-2-[3-(2-Difluoromethoxy-phenyl)-[1,2,4]oxadiazol-5-yl]-pyrrolidin-1-yl}-(5-methoxy-4-methyl-2-[1,2,3]triazol-2-yl-phenyl)-methanone]",,
14,140,"COc1ccc(C)c(-c2nc([C@@H]3CCCN3C(=O)c3cc(C)ccc3-n3nccn3)no2)c1 [compound 410, {(S)-2-[5-(5-Methoxy-2-methyl-phenyl)-[1,2,4]oxadiazol-3-yl]-pyrrolidin-1-yl}-(5-methyl-2-[1,2,3]triazol-2-yl-phenyl)-methanone]",,
7,22,"CCOc1ncccc1-c1noc([C@@H]2CCCN2C(=O)c2cc(C)ccc2-n2nccn2)n1 [compound 41, {(S)-2-[3-(2-Ethoxy-pyridin-3-yl)-[1,2,4]oxadiazol-5-yl]-pyrrolidin-1-yl}-(5-methyl-2-[1,2,3]triazol-2-yl-phenyl)-methanone]",,
13,49,"COc1cc(C(=O)N2CCC[C@H]2c2cc(-c3ccccc3OC(F)(F)F)on2)c(-n2nccn2)cc1C [compound 436, (5-Methoxy-4-methyl-2-[1,2,3]triazol-2-yl-phenyl)-{(S)-2-[5-(2-trifluoromethoxy-phenyl)-isoxazol-3-yl]-pyrrolidin-1-yl}-methanone]",,
163,1840,"COc1ccc(F)c(-c2noc([C@@H]3CCCN3C(=O)c3cc(C)ccc3-n3nccn3)n2)c1F [compound 69, {(S)-2-[3-(2,6-Difluoro-3-methoxy-phenyl)-[1,2,4]oxadiazol-5-yl]-pyrrolidin-1-yl}-(5-methyl-2-[1,2,3]triazol-2-yl-phenyl)-methanone]",,
212,238,"Cc1ccc(-n2cccn2)c(C(=O)N2CCC[C@H]2c2nc(-c3ccccc3OC(F)(F)F)no2)n1 [compound 160, (6-Methyl-3-pyrazol-1-yl-pyridin-2-yl)-{(S)-2-[3-(2-trifluoromethoxy-phenyl)-[1,2,4]oxadiazol-5-yl]-pyrrolidin-1-yl}-methanone]",,
14,53,"O=C(c1cccc(F)c1-c1ccn[nH]1)N1CCC[C@H]1c1nc(-c2ccccc2OC(F)F)no1 [compound 190, {(S)-2-[3-(2-Difluoromethoxy-phenyl)-[1,2,4]oxadiazol-5-yl]-pyrrolidin-1-yl}-[3-fluoro-2-(2H-pyrazol-3-yl)-phenyl]-methanone]",,
133,311,"Cc1ccc(-c2ccccn2)c(C(=O)N2CCC[C@H]2c2nc(-c3ccccc3C(F)(F)F)no2)c1 [compound 184, (5-Methyl-2-pyridin-2-yl-phenyl)-{(S)-2-[3-(2-trifluoromethyl-phenyl)-[1,2,4]oxadiazol-5-yl]-pyrrolidin-1-yl}-methanone]",,
12,23,"Cc1ccc(-n2nccn2)c(C(=O)N2CCC[C@H]2c2nc(-c3cccc4c3OCCO4)no2)c1 [compound 38, {(S)-2-[3-(2,3-Dihydro-benzo[1,4]dioxin-5-yl)-[1,2,4]oxadiazol-5-yl]-pyrrolidin-1-yl}-(5-methyl-2-[1,2,3]triazol-2-yl-phenyl)-methanone]",,

SMILES,IC50 (human orexin-2 receptor; [1]) [nM],IC50 (orexin-1; [2]) [nM],IC50 (orexin-1) [nM],IC50 (human orexin-2 receptor) [nM]
Cc1ccc(C(=O)N2CCC[C@H]2c2nc(-c3cccc(Cl)c3C)no2)c(-n2nccn2)c1 [compound 96],12,109,,
Cc1cccc(-c2nc([C@@H]3CCCN3C(=O)c3cc(Cl)ccc3-n3nccn3)no2)c1C [compound 394],12,,134,
COc1ccc(-n2cccn2)c(C(=O)N2CCC[C@H]2c2nc(-c3cccc(Cl)c3C)no2)c1 [compound 106],28,327,,
COc1c(F)cccc1-c1nnc([C@@H]2CCCN2C(=O)c2cc(Cl)c(C)cc2-n2nccn2)[nH]1 [compound 475],2,,11,
Cc1ccc(-n2nccn2)c(C(=O)N2CCC[C@H]2c2nc(-c3ccccc3Cl)no2)c1 [compound 21],19,339,,
Cc1ccccc1-c1noc([C@@H]2CCCN2C(=O)c2cccs2)n1 [Ref 3],> 10000,6270,,
Cc1c(Cl)cccc1-c1noc([C@@H]2CCCN2C(=O)c2ccccc2-c2ncco2)n1 [compound 120],,483,,37
COc1c(Cl)cccc1-c1nc([C@@H]2CCCN2C(=O)c2cc(C)ccc2-n2nccn2)no1 [compound 351],4,,22,
COc1ccc(C)c(-c2nc([C@@H]3CCCN3C(=O)c3cc(Cl)ccc3-n3nccn3)no2)c1 [compound 416],20,,152,
COc1ccc(C)c(-c2nc([C@@H]3CCCN3C(=O)c3cc(OC)c(Cl)cc3-n3nccn3)no2)c1 [compound 353],5,54,,
Cc1ccc(C(=O)N2CCC[C@H]2c2nc(-c3cccc(Cl)c3C)no2)c(-n2nccn2)c1C [compound 129],287,,419,
O=C(c1cccs1)N1CCC[C@H]1c1nc(-c2ccccc2)no1 [Ref 1],> 10000,> 8500,,
Cc1ccc(C(=O)N2CCC[C@H]2c2cc(-c3cccc(Cl)c3C)n[nH]2)c(-n2nccn2)c1 [compound 531],57,,255,
O=C(c1cccs1)N1CCC[C@H]1c1nc(-c2cccc(Cl)c2)no1 [Ref 2],7230,4260,,
Cc1c(Cl)cccc1-c1noc([C@@H]2CCCN2C(=O)c2ccc(F)cc2-n2nccn2)n1 [compound 112],,833,,121
COc1cc(C(=O)N2CCC[C@H]2c2nc(-c3cccc(F)c3OC)no2)c(-n2nccn2)cc1Cl [compound 282],1,44,,
Cc1ccc(-c2ncccn2)c(C(=O)N2CCC[C@H]2c2nc(-c3cccc(Cl)c3C)no2)c1 [compound 274],29,171,,
